The results in this text go back to patent US20230416329A1, “A PEPTIDE WITH DISULFIDE BONDS AND INHIBITORY ACTIVITY AGAINST SERINE PROTEASES, DERIVED HYBRID PEPTIDES THEREOF, AND USES THEREOF” (INSTITUTE OF MATERIA MEDICA , CHINESE ACADEMY OF MEDICAL …, priority 2020, published 2023).

Bridge positions count the residues as written; N and C are the ends. Peptide text beside a SMILES is read from it.

The target of the test is α-chymotrypsin (Bos taurus, UniProt P00766). Put plainly: Chymotrypsin inhibitory activity of peptides (AAPFpNA hydrolysis; IC50, Ki, residual activity). The test is classed as biochemical. The conditions noted are these: for Ki: Ki=IC50/(1+S/Km), Km 0.38 mM; for IC50: chymotrypsin 30 nM, AAPFpNA 0.5 mM. The method, then: The inhibition constants of various synthetic active peptide inhibitors (molecular scaffolds) against seine proteases were measured. The substrates N-succinyl-Ala-Ala-Pro-Phe-p-nitroaniline (AAPFpNA), Nα—Benzoyl-L-arginine-4-nitroaniline hydrochloride (BApNA) and N-succinyl-[…] (AAApNA) are used in competitive binding reaction to determine the inhibitory activities against α-chymotrypsin, bovine trypsin, and porcine pancreatic elastase, respectively. Experiments for α-chymotrypsin and bovine trypsin inhibition were measured in 20 mM CaCl2, 50 mM Tris-HCl buffer (pH 7.8), and that for porcine elastase inhibition was measured in 50 mM Tris-HCl buffer (pH 8.0). The concentration of the peptide was measured using optical density (OD) at 280 nm. The Michaelis constant (Km) of the enzyme hydrolysis substrate is calculated from the initial rate of substrate hydrolysis at 405 nm. The absorbance value of the substrate was measured at 405 nm after complete hydrolysis. All data were processed using nonlinear regression.
• (1) Added a total 190 μL of reaction buffer (20 mM CaCl2, 50 mM Tris-HCl (pH 7.8)) into the 96 well plate, followed by preheating at 37° C. for 15 min. Then added 2 μL of different concentrations of substrates (p-Nitroanilide, pNA, 0.5% in DMSO), and mixed by centrifugation at 500 rpm for 1 min. Finally, the plate was incubated at 37° C. for 20 min, and the absorbance value at 405 nm was measured. In the 200 μL of reaction system, the final concentrations of pNA were 0, 0.025, 0.05, 0.075, 0.1, 0.125, 0.15, 0.25, and 0.3 mM, respectively. Make three repetitions for each concentration and plot the OD405 m value with pNA concentration to obtain the standard curve. • (2) Added a total 190 μL of reaction buffer (20 mM CaCl2, 50 mM Tris-HCl (pH 7.8)) and 8 μL of 0.75 μM chymotrypsin into the 96 well plate, followed by preheating at 37° C. for 5 min. Then added 2 μL of different concentrations of substrates (AAPFpNA, dissolved in DMSO), and mixed by centrifugation at 500 rpm for 1 min. Finally, the plate was incubated at 37° C. for 20 min, and the absorbance value at 405 nm was measured. In the 200 μL of reaction system, the final concentrations of AAPFpNA were 0, 0.125, 0.25, 0.285, 0.33, 0.4, and 0.5 mM, respectively. Make three repetitions for each concentration and plot the OD405 nm value with time to obtain the corresponding curve. Divide the slope of the curve by the slope of the standard curve and the enzyme concentration to obtain the initial velocity V0 (mM/(min*mM protein). Plot the initial velocity V0 with the concentration of substrate AAPFpNA using Prism software, and the Michaelis constant Km value of chymotrypsin hydrolyzing AAPFpNA was obtained.
• (1) Added a total 190 μL of reaction buffer (20 mM CaCl2, 50 mM Tris-HCl (pH 7.8)), different concentrations of anti-chymorypsin peptides (CHs) into the pre-cold 96 well plate, followed by preheating at 37° C. for 5 min and centrifugated at 500 rpm for 1 min and allowed to stand for 4 minutes. Then added 8 μL of 750 nM chymotrypsin and incubated at 37° C. for 10 min, and centrifugated at 500 rpm for 1 min and allowed to stand for 9 minutes. Finally, added 2 μL of 50 mM AAPFpNA, and mixed by centrifugation at 500 rpm for 1 min. The plate was incubated at 37° C. for 90 min, and the absorbance value at 405 nm was measured. Three repetitions were made, and only reaction buffer and substrate were added in the blank control as the minimum absorption value (Min OD405 nm); Only reaction buffer, enzyme and substrate were added in the negative control as the maximum absorption value (Max OD405). • (2) In the 200 μL of reaction system, the final concentrations of chymotrypsin and AAPFpNA were 30 nM and 0.5 mM, respectively. • (3) Data statistics
Residual activity of enzyme (%)=(1−(Max OD405 nm−Sample OD405 nm)/(Max OD405 nm−Min OD405 nm))*100 […]

Compound `CC[C@H](C)[C@@H]1NC(=O)[C@H](CO)NC(=O)[C@H](Cc2ccc(O)cc2)NC(=O)[C@H]([C@@H](C)O)NC(=O)[C@H](C)NC(=O)[C@H](CO)NC(=O)CNC(=O)[C@@H](N)CSSC[C@@H](C(=O)N[C@@H](Cc2ccc(O)cc2)C(=O)NCC(=O)O)NC(=O)[C@H](CCC(N)=O)NC(=O)[C@@H]2CCCN2C(=O)[C@@H]2CCCN2C1=O` [CH15] (H-CGSATYSIPPQCYG-OH; disulfide 1-12; N-terminus and C-terminus assumed) had a Ki of 1.99 µM and an IC50 of 4.6 µM. For the compound `CC[C@H](C)[C@@H]1NC(=O)[C@H](CO)NC(=O)[C@H](Cc2ccc(O)cc2)NC(=O)[C@H]([C@@H](C)O)NC(=O)[C@H](C)NC(=O)[C@H](Cc2ccc(O)cc2)NC(=O)CNC(=O)[C@@H](N)CSSC[C@@H](C(=O)N[C@@H](Cc2ccc(O)cc2)C(=O)NCC(=O)O)NC(=O)[C@H](CCC(N)=O)NC(=O)[C@@H]2CCCN2C(=O)[C@@H]2CCCN2C1=O` [CH30] (H-CGYATYSIPPQCYG-OH; disulfide 1-12), the IC50 was greater than 50 µM.

For `CC[C@H](C)[C@@H]1NC(=O)[C@H](CO)NC(=O)[C@H](Cc2ccc(O)cc2)NC(=O)[C@H]([C@@H](C)O)NC(=O)[C@@H](NC(=O)[C@@H](N)Cc2ccccc2)CSSC[C@@H](C(=O)N[C@@H](Cc2ccc(O)cc2)C(=O)O)NC(=O)[C@H](CCC(N)=O)NC(=O)[C@@H]2CCCN2C(=O)[C@@H]2CCCN2C1=O` [CH33] (H-FCTYSIPPQCY-OH; disulfide 2-10; C-terminus assumed), the “inhibitory activity against chymotrypsin (in words)” value (shortened to “inhibitory activity”) is recorded as “good inhibitory activity”.

In the case of `CC[C@H](C)[C@@H]1NC(=O)[C@H](CO)NC(=O)[C@H](Cc2ccc(O)cc2)NC(=O)[C@H]([C@@H](C)O)NC(=O)[C@@H](NC(=O)[C@@H](N)Cc2ccccc2)CSSC[C@@H](C(=O)N[C@@H](Cc2ccc(O)cc2)C(=O)N[C@@H](C)C(=O)O)NC(=O)[C@H](CCC(N)=O)NC(=O)[C@@H]2CCCN2C(=O)[C@@H]2CCCN2C1=O` [CH34] (H-FCTYSIPPQCYA-OH; disulfide 2-10; N-terminus and C-terminus assumed), the “inhibitory activity” value is reported as “good inhibitory activity”. On to `CSCC[C@@H]1NC(=O)[C@H](CO)NC(=O)[C@H](Cc2ccc(O)cc2)NC(=O)[C@H]([C@@H](C)O)NC(=O)[C@@H](NC(=O)[C@@H](N)Cc2ccccc2)CSSC[C@@H](C(=O)N[C@H](C(=O)O)C(C)C)NC(=O)[C@H](Cc2c[nH]cn2)NC(=O)[C@@H]2CCCN2C(=O)[C@@H]2CCCN2C1=O` [CH41] (H-FCTYSMPPHCV-OH; disulfide 2-10; N-terminus and C-terminus assumed), for which the affinity corresponds to a Ki of 1.12 µM and the IC50 amounted to 2.6 µM. `CC[C@H](C)[C@@H]1NC(=O)[C@H](CO)NC(=O)[C@H](Cc2ccc(O)cc2)NC(=O)[C@H]([C@@H](C)O)NC(=O)[C@@H](NC(=O)[C@@H](N)Cc2ccccc2)CSSC[C@@H](C(=O)N[C@@H](Cc2ccc(O)cc2)C(=O)O)NC(=O)[C@H](CCC(N)=O)NC(=O)[C@H](C)NC(=O)[C@@H]2CCCN2C1=O` [CH37] (H-FCTYSIPAQCY-OH; disulfide 2-10; N-terminus and C-terminus assumed) came in with a Ki of 0.78 µM and an IC50 of 1.81 µM. Consider `CC[C@H](C)[C@@H]1NC(=O)[C@H](CO)NC(=O)[C@H](Cc2ccc(O)cc2)NC(=O)[C@H]([C@@H](C)O)NC(=O)[C@H](C)NC(=O)[C@H](CO)NC(=O)[C@@H](N)CSSC[C@@H](C(=O)N[C@@H](Cc2ccc(O)cc2)C(=O)NCC(=O)O)NC(=O)[C@H](CCC(N)=O)NC(=O)[C@@H]2CCCN2C(=O)[C@@H]2CCCN2C1=O` [CH16] (H-CSATYSIPPQCYG-OH; disulfide 1-11; N-terminus and C-terminus assumed), for which the IC50 was greater than 50 µM.

With `CC[C@H](C)[C@@H]1NC(=O)[C@H](CO)NC(=O)[C@H](Cc2ccc(O)cc2)NC(=O)[C@H]([C@@H](C)O)NC(=O)[C@H](C)NC(=O)[C@H](CO)NC(=O)CNC(=O)[C@@H](N)CSSC[C@@H](C(=O)N[C@@H](Cc2ccccc2)C(=O)NCC(=O)O)NC(=O)[C@H](CCCCN)NC(=O)[C@H](C)NC(=O)[C@@H]2CCCN2C1=O` [CH24] (H-CGSATYSIPAKCFG-OH; disulfide 1-12; N-terminus and C-terminus assumed), the “inhibitory activity” value is “good inhibitory activity”, affinity was put at a Ki of 2.65 µM and the IC50 is 6.14 µM.

In turn, `CSCC[C@@H]1NC(=O)[C@H](C)NC(=O)[C@@H]2CCCN2C(=O)[C@H](CC(N)=O)NC(=O)[C@H](CO)NC(=O)[C@H](Cc2ccccc2)NC(=O)[C@H]([C@@H](C)O)NC(=O)[C@@H](NC(=O)[C@@H](N)C(C)C)CSSC[C@@H](C(=O)N[C@@H](Cc2c[nH]cn2)C(=O)O)NC1=O` [CH48] (H-VCTFSNPAMCH-OH; disulfide 2-10) yielded an IC50 greater than 50 µM.

Regarding `CC[C@H](C)[C@@H]1NC(=O)[C@H](CO)NC(=O)[C@H](Cc2ccc(O)cc2)NC(=O)[C@H]([C@@H](C)O)NC(=O)[C@H](C)NC(=O)[C@H](CO)NC(=O)CNC(=O)[C@@H](N)CSSC[C@@H](C(=O)N[C@@H](Cc2ccc(O)cc2)C(=O)O)NC(=O)[C@H](CCC(N)=O)NC(=O)[C@@H]2CCCN2C(=O)[C@@H]2CCCN2C1=O` [CH9] (H-CGSATYSIPPQCY-OH; disulfide 1-12; N-terminus and C-terminus assumed), the “inhibitory activity” value is given as “certain inhibitory activity against chymotrypsin”, the affinity corresponds to a Ki of 12.3 µM and the IC50 turned out to be 28.4 µM. Compound `CC[C@H](C)[C@@H]1NC(=O)[C@H](CO)NC(=O)[C@H](Cc2ccc(O)cc2)NC(=O)[C@H]([C@@H](C)O)NC(=O)[C@H](C)NC(=O)[C@H](Cc2ccccc2)NC(=O)CNC(=O)[C@@H](N)CSSC[C@@H](C(=O)N[C@@H](Cc2ccc(O)cc2)C(=O)NCC(=O)O)NC(=O)[C@H](CCC(N)=O)NC(=O)[C@@H]2CCCN2C(=O)[C@@H]2CCCN2C1=O` [CH14] (H-CGFATYSIPPQCYG-OH; disulfide 1-12) had an IC50 greater than 50 µM.

`CC[C@H](C)[C@@H]1NC(=O)[C@H](CO)NC(=O)[C@H](Cc2ccc(O)cc2)NC(=O)[C@H]([C@@H](C)O)NC(=O)[C@@H](NC(=O)[C@@H](N)Cc2ccccc2)CSSC[C@@H](C(=O)N[C@@H](Cc2ccc(O)cc2)C(=O)O)NC(=O)[C@H](CCCCN)NC(=O)[C@H](C)NC(=O)[C@@H]2CCCN2C1=O` [CH36] (H-FCTYSIPAKCY-OH; disulfide 2-10; N-terminus and C-terminus assumed) came in with a Ki of 1.39 µM and an IC50 of 3.23 µM.

As for `CC[C@H](C)[C@@H]1NC(=O)[C@@H]2CCCN2C(=O)[C@@H]2CCCN2C(=O)[C@H]([C@@H](C)CC)NC(=O)[C@H](CO)NC(=O)[C@H](Cc2ccccc2)NC(=O)[C@H]([C@@H](C)O)NC(=O)[C@@H](NC(=O)[C@@H](NC(=O)CN)[C@@H](C)O)CSSC[C@@H](C(=O)N[C@@H](CC(N)=O)C(=O)O)NC1=O` [CH26] (H-GTCTFSIPPICN-OH; disulfide 3-11; C-terminus assumed), the “inhibitory activity” value is listed as “good inhibitory activity”. Turning to `CC[C@H](C)[C@@H]1NC(=O)[C@H](CO)NC(=O)[C@H](Cc2ccc(O)cc2)NC(=O)[C@H]([C@@H](C)O)NC(=O)[C@H](C)NC(=O)[C@H](CO)NC(=O)CNC(=O)CNC(=O)[C@@H](N)CSSC[C@@H](C(=O)N[C@@H](Cc2ccc(O)cc2)C(=O)O)NC(=O)[C@H](CCC(N)=O)NC(=O)[C@@H]2CCCN2C(=O)[C@@H]2CCCN2C1=O` [CH29] (H-CGGSATYSIPPQCY-OH; disulfide 1-13; N-terminus and C-terminus assumed), the IC50 was greater than 50 µM.
